SMILES strings stand for the structures.

Common to all, as to format: in vivo
Assay [1] deals with Ivyleaf morningglory. In words: Herbicidal effect in pots sown with ethaboxam-treated cotton seeds, PPO inhibitor sprayed on soil (Example 3). Particulars: cotton pot, day 7 after sowing, scale 0 to 100. How it is done: In a plastic cup of 100 mm in inside diameter and 40 mm in height, 5.7 mg of an ethaboxam suspension (a suspension containing 34.6% of ethaboxam, manufactured by Valent USA Corp.) and 40 cotton seeds were placed. The plastic cup was shaken by the hand so that the ethaboxam suspension was attached to the cotton seeds. The weight of 40 cotton seeds was 6.6 g, and the amount of ethaboxam by the above treatment was calculated as 30 g per 100 kg of the cotton seeds. In the same manner, 56.7 mg of the ethaboxam suspension was attached to 40 cotton seeds. The weight of 40 cotton seeds was 6.55 g, and the amount of ethaboxam by the above treatment was calculated as 300 g per 100 kg of the cotton seeds. A soil was packed in a plastic pot of 120 mm in inside diameter×80 mm in height. The above cotton seeds were sown in this pot at a rate of two seeds per pot, and the seeds of ivyleaf morningglory were sown at a rate of four seeds per pot. On the day of sowing the cottonseeds and after sowing the cotton seeds, an aqueous diluted solution (113 mg of active ingredient/L or 225 mg of active ingredient/L) of a flumioxazin granular wettable powder (a granular wettable powder containing 51% of flumioxazin, trade name: Valor SX, manufactured by Valent USA), an aqueous diluted solution (226 mg of active ingredient/L or 1130 mg of active ingredient/L) of a sulfentrazone granular wettable powder (a granular wettable powder containing 75% of sulfentrazone, trade name: Cover, manufactured by DuPont), or an aqueous diluted solution (113 mg/L or 226 mg/L) of saflufenacil was uniformly sprayed on the soil surface with a sprayer so as to apply the amount described in Tables 7 to 9. […] On day 7 after sowing the seeds of cotton and ivyleaf morningglory, the herbicidal effect was investigated.

Assay [2] has as its system Ivyleaf morningglory. The experiment in a line: Herbicidal effect in pots sown with ethaboxam-treated soybean seeds, PPO inhibitor sprayed on soil (Example 1). Particulars: soybean pot, day 7 after sowing, scale 0 to 100. The procedure: In a plastic cup of 100 mm in inside diameter and 40 mm in height, 10.5 mg of an ethaboxam suspension (a suspension containing 34.6% of ethaboxam, manufactured by Valent USA Corp.) and 40 soybean seeds were placed. The plastic cup was shaken by the hand so that the ethaboxam suspension was attached to the soybean seeds. The weight of 40 soybean seeds was 12.1 g, and the amount of ethaboxam by the above treatment was calculated as 30 g per 100 kg of the soybean seeds. In the same manner, 104.9 mg of the ethaboxam suspension was attached to 40 soybean seeds. The weight of 40 soybean seeds was 12.1 g, and the amount of ethaboxam by the above treatment was calculated as 300 g per 100 kg of the soybean seeds. A soil was packed in a plastic pot of 120 mm in inside diameter×80 mm in height. The above treated soybean seeds were sown in this pot at a rate of two seeds per pot, and the seeds of ivyleaf morningglory were sown at a rate of four seeds per pot. On the day of sowing the soybean seeds and after sowing the soybean seeds, an aqueous diluted solution (113 mg of active ingredient/L or 225 mg of active ingredient/L) of a flumioxazin granular wettable powder (a granular wettable powder containing 51% of flumioxazin, trade name: Valor SX, manufactured by Valent USA), an aqueous diluted solution (226 mg of active ingredient/L or 1130 mg of active ingredient/L) of a sulfentrazone granular wettable powder (a granular wettable powder containing 75% of sulfentrazone, trade name: Cover, manufactured by DuPont), or an aqueous diluted solution (113 mg/L or 226 mg/L) of saflufenacil was uniformly sprayed on the soil surface with a sprayer so as to apply the amount described in Tables 1 to 3. […] On day 7 after sowing the seeds of soybean and ivyleaf morningglory, the herbicidal effect was investigated.

Assay [3] relates to Ivyleaf morningglory. The experiment in a line: Herbicidal effect in pots sown with ethaboxam-treated corn seeds, PPO inhibitor sprayed on soil (Example 2). The settings on record: corn pot, day 7 after sowing, scale 0 to 100. How it is done:
In a plastic cup of 100 mm in inside diameter and 40 mm in height, 13.4 mg of an ethaboxam suspension (a suspension containing 34. 6% of ethaboxam, manufactured by Valent USA Corp.) and 40 corn seeds were placed. The plastic cup was shaken by the hand so that the ethaboxam suspension was attached to the corn seeds. The weight of 40 corn seeds was 15.5 g, and the amount of ethaboxam by the above treatment was calculated as 30 g per 100 kg of the corn seeds. In the same manner, 138.7 mg of the ethaboxam suspension was attached to 40 corn seeds. The weight of 40 corn seeds was 16.0 g, and the amount of ethaboxam by the above treatment was calculated as 300 g per 100 kg of the corn seeds. A soil was packed in a plastic pot of 120 mm in inside diameter×80 mm in height. The above treated corn seeds were sown in this pot at a rate of two seeds per pot, and the seeds of ivyleaf morningglory were sown at a rate of four seeds per pot. On the day of sowing the corn seeds and after sowing the corn seeds, an aqueous diluted solution (113 mg of active ingredient/L or 225 mg of active ingredient/L) of a flumioxazin granular wettable powder (a granular wettable powder containing 51% of flumioxazin, trade name: Valor SX, manufactured by Valent USA), an aqueous diluted solution (226 mg of active ingredient/L or 1130 mg of active ingredient/L) of a sulfentrazone granular wettable powder (a granular wettable powder containing 75% of sulfentrazone, trade name: Cover, manufactured by DuPont), or an aqueous diluted solution (113 mg/L or 226 mg/L) of saflufenacil was uniformly sprayed on the soil surface with a sprayer so as to apply the amount described in Tables 4 to 6. […] On day 7 after sowing the seeds of corn and ivyleaf morningglory, the herbicidal effect was investigated.

Setting [4] is: no ethaboxam, saflufenacil 100 g/ha.
Setting [5] is: ethaboxam 30 g/100 kg of seeds, no PPO inhibitor.
Setting [6] is: ethaboxam 300 g/100 kg of seeds, no PPO inhibitor.
[7] abbreviates: no ethaboxam, sulfentrazone 500 g/ha.
The mark [8] stands for this setting: no ethaboxam, flumioxazin 100 g/ha.

Take `CC(C)N(C)S(=O)(=O)NC(=O)c1cc(-n2c(=O)cc(C(F)(F)F)n(C)c2=O)c(F)cc1Cl` [saflufenacil]: the “Herbicidal effect Ivyleaf morningglory” value in assay [1] (no ethaboxam, saflufenacil 50 g/ha) came out at 20; in assay [1] (setting [4]), 70; in assay [2] (setting [4]) it was 50.

As for `CCNc1nc(CC)c(C(=O)NC(C#N)c2cccs2)s1` (centres unmarked) [ethaboxam], the “Herbicidal effect Ivyleaf morningglory” value in assay [1] (setting [5]), in assay [1] (setting [6]), in assay [3] (setting [5]), in assay [3] (setting [6]), in assay [2] (setting [5]) and in assay [2] (setting [6]) was 0 throughout.

`Cc1nn(-c2cc(NS(C)(=O)=O)c(Cl)cc2Cl)c(=O)n1C(F)F` [sulfentrazone]: the “Herbicidal effect Ivyleaf morningglory” value is on record as 40 in assay [1] (setting [7]); 30 in assay [3] (no ethaboxam, sulfentrazone 100 g/ha); 70 in assay [3] (setting [7]).

As to `C#CCN1C(=O)COc2cc(F)c(N3C(=O)C4=C(CCCC4)C3=O)cc21` [flumioxazin], the “Herbicidal effect Ivyleaf morningglory” value in assay [1] (setting [8]) and in assay [3] (setting [8]) was 30 throughout.

(Values after patent US9420787B2, “Method for controlling noxious organisms” (SUMITOMO CHEMICAL COMPANY, LIMITED, priority 2012, dated 2016).)
